In patent US20160177395A1, “BIOMARKERS FOR THE PREDICTION OF RENAL INJURY” (priority 2007, published 2016):
“And” between values parts separate entries of the source, which are not always exact repeats. Equal entries are not always repeated.

How the values were obtained:
[1] = system: kidney tissues of treated or untreated rats; test: Real-time qRT-PCR of signature amplicons, validation stage, labeled and un-labeled samples (Table 23); details: for H31883_DB71_seg13 normalized qRT-PCR result / MUSCYCG1R_DB81_seg19-20 normalized qRT-PCR result / W41270_DB81_seg11 normalized qRT-PCR result: un-labeled sample, one line per animal; for AI045075_DB71_seg6 normalized qRT-PCR expression (Interferon stimulated exonuclease 20 (ISG20) transcript) / H31883_DB71_seg13 normalized qRT-PCR expression (Cyclin-G1 (CCNG1) transcript) / MUSCYCG1R_DB81_seg19-20 normalized qRT-PCR expression / W41270_DB81_seg11 normalized qRT-PCR expression (tumor necrosis factor receptor superfamily, member 12a transcript) / W64472_DB81_seg2 normalized qRT-PCR expression (Interferon stimulated exonuclease 20 (ISG20) transcript) / W83813_DB81_seg27 normalized qRT-PCR expression: un-labeled samples, kidney of individual male/female rats
From the text: New primers were designed for part of the transcripts, and new conditions for several qRT-PCR reactions were used, as described below.
The measurements were normalized in two steps. First—according to the house-keeping-genes normalization factor, and second—each plate was normalized according to ratio of the intensity measurements from samples appearing in it and in the shuffled (normalization) plate (Table 25 provides the plates details and the section “Inter-Plate Normalization” provides details of the normalization process). The normalized values were further scaled by a factor, for ease of viewing.
RT was prepared and qRT-PCR performed and analyzed as described hereinabove. qRT-PCR was performed for the four genes comprising the signature of the discovery stage described in Table 13. Two amplicons were tested for each gene—one representing the wild-type transcript, and another representing an alternative splice variant. Each amplicon was measured using the labeled samples described in Table 9 herein, as well as the un-labeled samples. Samples from both groups (labeled and un-labeled) were tested in seven 96 well plates as described in Table 25. In order to correct possible run to run variations, the following controls were added: 1. several samples were repeated in all 96 wells plates; 2. control shuffled plate was designed which combined samples from all seven test plates.
To account for possible differences of qRT-PCR measurements between the different plates due to experimental artifacts, a normalization plate was planned. This plate, designated hereinabove ‘shuffled plate’, contained samples from all other plates. Real Time PCR was performed on this plate using the primers appropriate for all candidates in tables 26 and 27. For each other plate (plates 1-7 above) and each amplicon, the samples appearing also in the shuffled plate were examined—the ratio between the transcript abundance as measured in the plate to the abundance as measured in the shuffled plate was calculated, outliers were manually removed, and the geometric mean of the left ratios was taken as an additional multiplicative normalization factor for the plate and amplicon.

[2] = system: kidney; test: Renal histopathology of rats treated with T1, T2, T3; format: in vivo, rat; details: rat, in vivo
Protocol: Each group consisted of 6 male and 6 female rats. The additional groups consisted of 6 males and 6 female rats treated with control compound for a single day and for five days, as described in Table 24.
T2 “no observed effect level” (NOEL, i.e., the maximal dose at which no toxic effect is visible) is 15 mg/kg.
At autopsy, both kidneys of each animal were removed and each kidney was cross sectioned. Half of each kidney was sent to RNA extraction and analysis.

[3] = Ds1, Day1, oral gavage, female rat kidney
[4] = Ds1, Day1, oral gavage, male rat kidney
[5] = Ds1, Day5, oral gavage, female rat kidney
[6] = Ds1, Day5, oral gavage, male rat kidney
[7] = Ds2, Day1, oral gavage, female rat kidney
[8] = Ds2, Day1, oral gavage, male rat kidney
[9] = Ds2, Day5, oral gavage, female rat kidney
[10] = Ds2, Day5, oral gavage, male rat kidney

SMILES: Nc1nc2ccc(OC(F)(F)F)cc2s1 [T3, 6-(trifluoromethoxy)benzothiazol-2-amine]
- H31883_DB71_seg13 normalized qRT-PCR result [1, 3]: 0.394 and 0.356 and 0.205
- MUSCYCG1R_DB81_seg19-20 normalized qRT-PCR result [1, 3]: 0.85 and 1.252 and 0.37
- W41270_DB81_seg11 normalized qRT-PCR result [1, 3]: 0.859 and 1.064 and 0.507
- H31883_DB71_seg13 normalized qRT-PCR result [1, 4]: 0.898 and 0.512 and 0.989 and 0.789
- MUSCYCG1R_DB81_seg19-20 normalized qRT-PCR result [1, 4]: 0.918 and 0.845 and 1.025 and 0.713
- W41270_DB81_seg11 normalized qRT-PCR result [1, 4]: 0.567 and 1.106 and 1.844 and 0.808
- H31883_DB71_seg13 normalized qRT-PCR result [1, 5]: 0.701 and 1.155 and 0.791 and 1.096
- MUSCYCG1R_DB81_seg19-20 normalized qRT-PCR result [1, 5]: 0.501 and 0.727 and 0.928 and 1.021
- W41270_DB81_seg11 normalized qRT-PCR result [1, 5]: 0.479 and 0.546 and 0.601 and 0.677
- H31883_DB71_seg13 normalized qRT-PCR result [1, 6]: 1.054 and 0.818 and 0.72
- MUSCYCG1R_DB81_seg19-20 normalized qRT-PCR result [1, 6]: 1.285 and 1.133 and 1.175
- W41270_DB81_seg11 normalized qRT-PCR result [1, 6]: 0.88 and 0.8 and 0.499
- H31883_DB71_seg13 normalized qRT-PCR result [1, 7]: 0.874 and 0.929 and 1.454
- MUSCYCG1R_DB81_seg19-20 normalized qRT-PCR result [1, 7]: 1.132 and 1.211 and 0.575
- W41270_DB81_seg11 normalized qRT-PCR result [1, 7]: 0.847 and 1.043 and 1.227
- H31883_DB71_seg13 normalized qRT-PCR result [1, 8]: 0.276 and 0.164 and 0.218 and 0.211
- MUSCYCG1R_DB81_seg19-20 normalized qRT-PCR result [1, 8]: 1.479 and 0.566 and 1.063 and 1.117
- W41270_DB81_seg11 normalized qRT-PCR result [1, 8]: 2.291 and 1.042 and 1.597 and 1.35
- H31883_DB71_seg13 normalized qRT-PCR result [1, 9]: 0.81 and 0.711 and 1.599 and 1.018
- MUSCYCG1R_DB81_seg19-20 normalized qRT-PCR result [1, 9]: 0.666 and 0.977 and 1.436 and 0.58
- W41270_DB81_seg11 normalized qRT-PCR result [1, 9]: 0.587 and 0.623 and 1.24 and 0.704
- H31883_DB71_seg13 normalized qRT-PCR result [1, 10]: 1.103 and 0.911
- MUSCYCG1R_DB81_seg19-20 normalized qRT-PCR result [1, 10]: 0.765 and 1.037
- W41270_DB81_seg11 normalized qRT-PCR result [1, 10]: 0.494 and 3.181
- AI045075_DB71_seg6 normalized qRT-PCR expression (Interferon stimulated exonuclease 20 (ISG20) transcript) ([1]; dose Ds1, Day1, oral gavage): 0.354 and 1.103 and 0.678 and 0.596
- H31883_DB71_seg13 normalized qRT-PCR expression (Cyclin-G1 (CCNG1) transcript) ([1]; dose Ds1, Day1, oral gavage): 0.919 and 0.764 and 0.611 and 0.663 and 0.569 and 1.366 and 0.637 and 0.949 and 0.7 and 0.582 and 1.074
- MUSCYCG1R_DB81_seg19-20 normalized qRT-PCR expression ([1]; dose Ds1, Day1, oral gavage): 0.96 and 0.232 and 0.183 and 1.044 and 1.137 and 0.132 and 0.134 and 0.767 and 0.441 and 0.114 and 0.726
- W41270_DB81_seg11 normalized qRT-PCR expression (tumor necrosis factor receptor superfamily, member 12a transcript) ([1]; dose Ds1, Day1, oral gavage): 0.64 and 0.457 and 0.575 and 0.374 and 0.468 and 0.465 and 0.344 and 0.568 and 0.551 and 0.282 and 0.649
- W64472_DB81_seg2 normalized qRT-PCR expression (Interferon stimulated exonuclease 20 (ISG20) transcript) ([1]; dose Ds1, Day1, oral gavage): 0.483 and 1.31 and 1.296 and 0.52
- W83813_DB81_seg27 normalized qRT-PCR expression ([1]; dose Ds1, Day1, oral gavage): 0.322 and 0.663 and 0.497 and 0.402
- AI045075_DB71_seg6 normalized qRT-PCR expression (Interferon stimulated exonuclease 20 (ISG20) transcript) ([1]; dose Ds1, Day5, oral gavage): 0.615 and 1.082 and 1.102 and 1.032
- H31883_DB71_seg13 normalized qRT-PCR expression (Cyclin-G1 (CCNG1) transcript) ([1]; dose Ds1, Day5, oral gavage): 1.65 and 1.003 and 1.338 and 0.576 and 1.082 and 1.358 and 1.585 and 0.946 and 1.094 and 1.3 and 1.301
- MUSCYCG1R_DB81_seg19-20 normalized qRT-PCR expression ([1]; dose Ds1, Day5, oral gavage): 0.649 and 0.716 and 1.035 and 1.226 and 0.857 and 0.625 and 0.525 and 0.398 and 1.413 and 0.62 and 0.638
- W41270_DB81_seg11 normalized qRT-PCR expression (tumor necrosis factor receptor superfamily, member 12a transcript) ([1]; dose Ds1, Day5, oral gavage): 0.722 and 1.807 and 0.483 and 0.899 and 0.832 and 1.015 and 0.699 and 0.495 and 1.093 and 0.482 and 1.957
- W64472_DB81_seg2 normalized qRT-PCR expression (Interferon stimulated exonuclease 20 (ISG20) transcript) ([1]; dose Ds1, Day5, oral gavage): 0.852 and 1.176 and 1.034 and 0.822
- W83813_DB81_seg27 normalized qRT-PCR expression ([1]; dose Ds1, Day5, oral gavage): 0.754 and 1.146 and 1.388 and 0.659
- AI045075_DB71_seg6 normalized qRT-PCR expression (Interferon stimulated exonuclease 20 (ISG20) transcript) ([1]; dose Ds2, Day1, oral gavage): 0.444 and 1.146 and 0.527
- H31883_DB71_seg13 normalized qRT-PCR expression (Cyclin-G1 (CCNG1) transcript) ([1]; dose Ds2, Day1, oral gavage): 0.802 and 0.969 and 0.632 and 1.119 and 0.923 and 0.767 and 1.13 and 1.47 and 0.662 and 0.643
- MUSCYCG1R_DB81_seg19-20 normalized qRT-PCR expression ([1]; dose Ds2, Day1, oral gavage): 0.92 and 0.203 and 0.275 and 2.153 and 0.29 and 0.152 and 1.45 and 2.313 and 0.798 and 0.158
- W41270_DB81_seg11 normalized qRT-PCR expression (tumor necrosis factor receptor superfamily, member 12a transcript) ([1]; dose Ds2, Day1, oral gavage): 0.49 and 0.347 and 0.174 and 0.912 and 0.418 and 0.359 (2×) and 0.667 and 0.956 and 0.897
- W64472_DB81_seg2 normalized qRT-PCR expression (Interferon stimulated exonuclease 20 (ISG20) transcript) ([1]; dose Ds2, Day1, oral gavage): 0.659 and 1.566 and 0.602
- W83813_DB81_seg27 normalized qRT-PCR expression ([1]; dose Ds2, Day1, oral gavage): 0.67 and 0.137 and 0.761
- AI045075_DB71_seg6 normalized qRT-PCR expression (Interferon stimulated exonuclease 20 (ISG20) transcript) ([1]; dose Ds2, Day5, oral gavage): 0.37 and 1.451 and 0.53
- H31883_DB71_seg13 normalized qRT-PCR expression (Cyclin-G1 (CCNG1) transcript) ([1]; dose Ds2, Day5, oral gavage): 0.942 and 0.718 and 1.058 and 1.087 and 2.34 and 1.259 and 0.705 and 0.846 and 0.949
- MUSCYCG1R_DB81_seg19-20 normalized qRT-PCR expression ([1]; dose Ds2, Day5, oral gavage): 1.567 and 0.875 and 1.708 and 1.024 and 1.119 and 1.475 and 1.004 and 0.658 and 1.003
- W41270_DB81_seg11 normalized qRT-PCR expression (tumor necrosis factor receptor superfamily, member 12a transcript) ([1]; dose Ds2, Day5, oral gavage): 0.762 and 1.066 and 1.119 and 0.472 and 0.766 and 0.944 and 0.363 and 0.605 and 0.43
- W64472_DB81_seg2 normalized qRT-PCR expression (Interferon stimulated exonuclease 20 (ISG20) transcript) ([1]; dose Ds2, Day5, oral gavage): 0.368 and 0.779 and 0.656
- W83813_DB81_seg27 normalized qRT-PCR expression ([1]; dose Ds2, Day5, oral gavage): 0.729 and 0.728 and 0.933
- Renal damage [2]: no renal damage after up to 35 days of treatment
